# Assay results taken from patent publication US6737383B1, “Herbicidal oxadiazolidines” (priority 1999, dated 2004).
# Key:
# surinam grass = experiment: Test B pre/postemergence surinam grass; format: in vivo, Brachiaria decumbens
# Outline: (§1)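 Test chemicals in a non-phytotoxic solvent mixture with surfactant were sprayed preemergence onto planted seeds and postemergence onto plants 2 to 18 cm tall (1- to 4-leaf stage). After twelve to sixteen days in a greenhouse, injury was visually rated against untreated controls from 0 (no effect) to 10 (complete control).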
# rape = experiment: Test B pre/postemergence rape; format: in vivo, Brassica napus
# Outline: as §1
# bedstraw = experiment: Test B pre/postemergence bedstraw; format: in vivo, Galium aparine; conditions: for Plant response rating, Bedstraw: scale of 0 to 10 where 0 is no effect and 10 is complete control
# Outline: as §1
# crabgrass = experiment: Test B pre/postemergence crabgrass; format: in vivo, Digitaria sanguinalis
# Outline: as §1
# corn = experiment: Test B pre/postemergence corn; format: in vivo, Zea mays
# Outline: as §1
# sugar beet = experiment: Test B pre/postemergence sugar beet; format: in vivo, Beta vulgaris
# Outline: as §1
# cocklebur = experiment: Test B pre/postemergence cocklebur; format: in vivo, Xanthium strumarium
# Outline: as §1
# velvetleaf = experiment: Test B pre/postemergence velvetleaf; format: in vivo, Abutilon theophrasti
# Outline: as §1
# soybean = experiment: Test B pre/postemergence soybean; format: in vivo, Glycine max
# Outline: as §1
# purple nutsedge = experiment: Test B pre/postemergence purple nutsedge; format: in vivo, Cyperus rotundus
# Outline: as §1
# wild oat = experiment: Test B pre/postemergence wild oat; format: in vivo, Avena fatua
# Outline: as §1
# wheat = experiment: Test B pre/postemergence wheat; format: in vivo, Triticum aestivum
# Outline: as §1
# morningglory = experiment: Test B pre/postemergence morningglory; format: in vivo, Ipomoea hederacea
# Outline: as §1
# giant foxtail = experiment: Test B pre/postemergence giant foxtail; format: in vivo, Setaria faberii
# Outline: as §1
# blackgrass = experiment: Test B pre/postemergence blackgrass; format: in vivo, Alopecurus myosuroides
# Outline: as §1
# pigweed = experiment: Test B pre/postemergence pigweed; format: in vivo, Amaranthus retroflexus
# Outline: as §1
# [1] = Postemergence, Rate 62 g/ha, scale of 0 to 10, 0 is no effect, 10 is complete control
# [2] = Postemergence, Rate 125 g/ha, scale 0 to 10, 0 is no effect, 10 is complete control
# [3] = Postemergence, Rate 500 g/ha, scale 0 to 10, 0 is no effect, 10 is complete control
# [4] = Preemergence, Rate 62 g/ha, scale of 0 to 10 where 0 is no effect and 10 is complete control
# [5] = Preemergence, Rate 125 g/ha, scale 0 to 10, 0 is no effect, 10 is complete control
# [6] = Preemergence, Rate 250 g/ha, scale 0 to 10, 0 is no effect, 10 is complete control
# [7] = Preemergence, Rate 500 g/ha, scale 0 to 10, 0 is no effect, 10 is complete control
# [8] = Preemergence, Rate 500 g/ha, scale of 0 to 10 where 0 is no effect and 10 is complete control
# [9] = Postemergence, Rate 250 g/ha, scale 0 to 10
# [10] = Preemergence, Rate 125 g/ha, scale of 0 to 10 where 0 is no effect and 10 is complete control
# [11] = Preemergence, Rate 250 g/ha, scale 0 (no effect) to 10 (complete control)
# [12] = Rate 500 g/ha, Preemergence, scale 0 to 10 (0 no effect, 10 complete control)
# [13] = Rate 62 g/ha, Preemergence, scale 0 to 10
structure (smiles),measurement,setting,value
CC(C)N(C(=O)n1oc(=O)n(C(C)C(=O)c2ccccc2)c1=O)c1ccc(F)cc1F (stereo not shown) [Compound 511],B. signalgrass plant response rating,surinam grass; [1],0
same,B. signalgrass plant response rating,surinam grass; [2],0
same,B. signalgrass plant response rating,"surinam grass; Postemergence, Rate 250 g/ha, scale 0 to 10, 0 no effect, 10 complete control",0
same,"Plant response rating, B. signalgrass",surinam grass; [3],3
same,"Plant response rating, B. signalgrass",surinam grass; [4],0
same,B. signalgrass plant response rating,surinam grass; [5],0
same,B. signalgrass plant response rating,surinam grass; [6],0
same,B. signalgrass plant response rating,surinam grass; [7],0
same,Rape plant response rating,rape; [1],0
same,Rape plant response rating,rape; [2],1
same,"Plant response rating, Rape",rape; [3],4
same,"Plant response rating, Rape",rape; [4],0
same,Rape plant response rating,rape; [5],0
same,Rape plant response rating,rape; [8],0
same,Bedstraw plant response rating,bedstraw; [2],8
same,"Plant response rating, Bedstraw","bedstraw; Preemergence, Rate 62 g/ha",0
same,Bedstraw plant response rating,bedstraw; [5],0
same,Bedstraw plant response rating,bedstraw; [6],0
same,Bedstraw plant response rating,bedstraw; [7],0
same,Crabgrass plant response rating,crabgrass; [1],3
same,Crabgrass plant response rating,crabgrass; [2],3
same,Crabgrass plant response rating,crabgrass; [9],7
same,"Plant response rating, Crabgrass",crabgrass; [3],9
same,"Plant response rating, Crabgrass",crabgrass; [4],5
same,Crabgrass plant response rating,crabgrass; [5],6
same,Crabgrass plant response rating,crabgrass; [8],10
same,Corn plant response rating,corn; [1],0
same,Corn plant response rating,corn; [2],0
same,Corn plant response rating,corn; [9],0
same,"Plant response rating, Corn",corn; [3],0
same,"Plant response rating, Corn",corn; [4],0
same,Corn plant response rating,corn; [5],0
same,Corn plant response rating,corn; [8],0
same,Sugarbeets plant response rating,sugar beet; [1],0
same,Sugarbeets plant response rating,sugar beet; [2],0
same,"Plant response rating, Sugarbeets",sugar beet; [3],2
same,"Plant response rating, Sugarbeets",sugar beet; [4],0
same,Sugarbeets plant response rating,sugar beet; [5],0
same,Sugarbeets plant response rating,sugar beet; [8],0
same,Cocklebur plant response rating,cocklebur; [1],0
same,Cocklebur plant response rating,cocklebur; [2],0
same,Cocklebur plant response rating,cocklebur; [9],0
same,"Plant response rating, Cocklebur",cocklebur; [3],0
same,"Plant response rating, Cocklebur",cocklebur; [4],0
same,Cocklebur plant response rating,cocklebur; [5],0
same,Cocklebur plant response rating,cocklebur; [6],0
same,Cocklebur plant response rating,cocklebur; [8],0
same,Velvetleaf plant response rating,velvetleaf; [1],0
same,Velvetleaf plant response rating,velvetleaf; [2],1
same,"Plant response rating, Velvetleaf",velvetleaf; [3],2
same,"Plant response rating, Velvetleaf",velvetleaf; [4],0
same,Velvetleaf plant response rating,velvetleaf; [5],0
same,Velvetleaf plant response rating,velvetleaf; [8],0
same,Soybean plant response rating,soybean; [1],1
same,Soybean plant response rating,soybean; [2],4
same,"Plant response rating, Soybean",soybean; [3],4
same,"Plant response rating, Soybean",soybean; [4],0
same,Soybean plant response rating,soybean; [5],0
same,Soybean plant response rating,soybean; [8],0
same,Nutsedge plant response rating,purple nutsedge; [1],0
same,Nutsedge plant response rating,purple nutsedge; [2],0
same,"Plant response rating, Nutsedge",purple nutsedge; [3],0
same,"Plant response rating, Nutsedge",purple nutsedge; [4],0
same,Nutsedge plant response rating,purple nutsedge; [5],0
same,Nutsedge plant response rating,purple nutsedge; [8],0
same,Wild oats plant response rating,wild oat; [1],0
same,Wild oats plant response rating,wild oat; [2],0
same,"Plant response rating, Wild oats",wild oat; [3],0
same,"Plant response rating, Wild oats",wild oat; [4],0
same,Wild oats plant response rating,wild oat; [5],0
same,Wild oats plant response rating,wild oat; [8],2
same,Wheat plant response rating,wheat; [1],0
same,Wheat plant response rating,wheat; [2],0
same,"Plant response rating, Wheat",wheat; [3],0
same,"Plant response rating, Wheat",wheat; [4],0
same,Wheat plant response rating,wheat; [5],0
same,Wheat plant response rating,wheat; [8],0
same,Morningglory plant response rating,morningglory; [1],4
same,Morningglory plant response rating,morningglory; [2],4
same,"Plant response rating, Morningglory",morningglory; [3],5
same,"Plant response rating, Morningglory",morningglory; [4],0
same,Morningglory plant response rating,morningglory; [5],0
same,Morningglory plant response rating,morningglory; [8],0
same,Giant foxtail plant response rating,giant foxtail; [1],3
same,Giant foxtail plant response rating,giant foxtail; [2],3
same,"Plant response rating, Giant foxtail",giant foxtail; [3],9
same,"Plant response rating, Giant foxtail",giant foxtail; [4],5
same,Giant foxtail plant response rating,giant foxtail; [8],10
same,Blackgrass plant response rating,blackgrass; [1],0
same,Blackgrass plant response rating,blackgrass; [2],0
same,Blackgrass plant response rating,blackgrass; [9],0
same,"Plant response rating, Blackgrass",blackgrass; [3],2
same,"Plant response rating, Blackgrass",blackgrass; [4],0
same,Blackgrass plant response rating,blackgrass; [5],0
same,Blackgrass plant response rating,blackgrass; [6],0
same,Blackgrass plant response rating,blackgrass; [8],0
same,Redroot pigweed plant response rating,pigweed; [1],5
same,Redroot pigweed plant response rating,pigweed; [2],6
same,"Plant response rating, Redroot pigweed",pigweed; [3],7
same,"Plant response rating, Redroot pigweed",pigweed; [4],4
same,Redroot pigweed plant response rating,pigweed; [5],6
same,Redroot pigweed plant response rating,pigweed; [8],8
CCOC(CC)n1c(=O)on(C(=O)N(c2ccc(F)cc2)C(C)C)c1=O (stereo not shown) [Compound 742],B. signalgrass plant response rating,surinam grass; [4],0
same,"Plant response rating, B. signalgrass",surinam grass; [10],0
same,B. signalgrass plant response rating,surinam grass; [11],0
same,B. signalgrass plant response rating,surinam grass; [12],0
same,"Plant response rating, Rape",rape; [10],0
same,Rape plant response rating,rape; [11],0
same,Rape plant response rating,rape; [13],0
same,Rape plant response rating,rape; [12],0
same,"Plant response rating, Bedstraw","bedstraw; Preemergence, Rate 125 g/ha",0
same,Bedstraw plant response rating,bedstraw; [11],0
same,Bedstraw plant response rating,bedstraw; [13],0
same,Bedstraw plant response rating,bedstraw; [12],0
same,"Plant response rating, Crabgrass",crabgrass; [10],0
same,Crabgrass plant response rating,crabgrass; [11],0
same,Crabgrass plant response rating,crabgrass; [13],0
same,Crabgrass plant response rating,crabgrass; [12],0
same,"Plant response rating, Corn",corn; [10],0
same,Corn plant response rating,corn; [11],0
same,Corn plant response rating,corn; [13],0
same,Corn plant response rating,corn; [12],0
same,"Plant response rating, Sugarbeets",sugar beet; [10],0
same,Sugarbeets plant response rating,sugar beet; [11],0
same,Sugarbeets plant response rating,sugar beet; [13],0
same,Sugarbeets plant response rating,sugar beet; [12],0
same,"Plant response rating, Cocklebur",cocklebur; [10],0
same,Cocklebur plant response rating,cocklebur; [11],0
same,Cocklebur plant response rating,cocklebur; [13],0
same,Cocklebur plant response rating,cocklebur; [12],0
same,"Plant response rating, Velvetleaf",velvetleaf; [10],0
same,Velvetleaf plant response rating,velvetleaf; [11],0
same,Velvetleaf plant response rating,velvetleaf; [13],0
same,Velvetleaf plant response rating,velvetleaf; [12],0
same,"Plant response rating, Soybean",soybean; [10],0
same,Soybean plant response rating,soybean; [11],0
same,Soybean plant response rating,soybean; [13],0
same,Soybean plant response rating,soybean; [12],0
same,"Plant response rating, Nutsedge",purple nutsedge; [10],0
same,Nutsedge plant response rating,purple nutsedge; [11],0
same,Nutsedge plant response rating,purple nutsedge; [13],0
same,Nutsedge plant response rating,purple nutsedge; [12],0
same,"Plant response rating, Wild oats",wild oat; [10],0
same,Wild oats plant response rating,wild oat; [11],0
same,Wild oats plant response rating,wild oat; [13],0
same,Wild oats plant response rating,wild oat; [12],0
same,"Plant response rating, Wheat",wheat; [10],0
same,Wheat plant response rating,wheat; [11],0
same,Wheat plant response rating,wheat; [13],0
same,Wheat plant response rating,wheat; [12],0
same,"Plant response rating, Morningglory",morningglory; [10],0
same,Morningglory plant response rating,morningglory; [11],0
same,Morningglory plant response rating,morningglory; [13],0
same,Morningglory plant response rating,morningglory; [12],0
same,"Plant response rating, Giant foxtail",giant foxtail; [10],0
same,Giant foxtail plant response rating,giant foxtail; [11],0
same,Giant foxtail plant response rating,giant foxtail; [13],0
same,Giant foxtail plant response rating,giant foxtail; [12],0
same,"Plant response rating, Blackgrass",blackgrass; [10],0
same,Blackgrass plant response rating,blackgrass; [11],0
same,Blackgrass plant response rating,blackgrass; [13],0
same,Blackgrass plant response rating,blackgrass; [12],0
same,"Plant response rating, Redroot pigweed",pigweed; [10],0
same,Redroot pigweed plant response rating,pigweed; [11],0
same,Redroot pigweed plant response rating,pigweed; [13],0
same,Redroot pigweed plant response rating,pigweed; [12],0
